In patent publication US4305950A, “Pharmaceutical agent containing amino derivatives of 2-methyl-5-(2-hydroxystyryl)-1,3,4-thiadiazole” (BASF Aktiengesellschaft, priority 1978, dated 1981):

Tests used:
cardiac beta-1-receptors = target: T1, cardiac beta-1-receptors (Felis catus, UniProt Q9TST6); test: Beta-sympatholytic action: inhibition of isoproterenol-induced tachycardia in narcotized cats; format: in vivo; conditions: for Beta-sympatholytic action, R.A. (relative activity): Propranolol = 1.00, cats, intravenous; for factor by which doses blocking cardiac beta-1-receptors are lower than those of propranolol: compared to propranolol
T1 construct: in narcotized cats (weight 2-4 kg); from tissue; host or cells: heart of the living narcotized cat (in vivo)
Source text: The following test methods were used:
Beta-sympatholytic agents inhibit such tachycardia.
^(1) Inhibition of isoproterenolinduced tachycardia in cats under
hexobarbital narcosis. Intravenous administration.
^(2) Dose (mg/kg) which inhibits the isoproterenolinduced tachycardia

female NMRI mice = format: in vivo; conditions: for Therapeutic range, relative: mouse, in vivo

T1 sequence (Q9TST6 whole entry): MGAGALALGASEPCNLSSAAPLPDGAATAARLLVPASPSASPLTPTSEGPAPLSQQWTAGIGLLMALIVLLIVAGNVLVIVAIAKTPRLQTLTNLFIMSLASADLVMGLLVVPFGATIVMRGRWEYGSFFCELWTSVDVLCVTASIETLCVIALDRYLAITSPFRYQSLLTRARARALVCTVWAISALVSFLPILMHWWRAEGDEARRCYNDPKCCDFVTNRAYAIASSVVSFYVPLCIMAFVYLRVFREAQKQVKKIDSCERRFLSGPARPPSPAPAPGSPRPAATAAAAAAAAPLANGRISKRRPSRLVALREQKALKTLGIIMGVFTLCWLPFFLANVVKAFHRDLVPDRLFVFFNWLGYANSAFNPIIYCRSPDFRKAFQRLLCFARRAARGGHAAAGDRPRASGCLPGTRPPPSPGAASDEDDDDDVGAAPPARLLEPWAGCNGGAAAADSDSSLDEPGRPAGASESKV

SMILES	Beta-sympatholytic action, R.A. (relative activity) (cardiac beta-1-receptors)	Therapeutic range, relative (female NMRI mice)	factor by which doses blocking cardiac beta-1-receptors are lower than those of propranolol (cardiac beta-1-receptors)	factor by which the therapeutic range is increased, compared to propranolol (female NMRI mice)	ED50 (cardiac beta-1-receptors; cat, cats under hexobarbital narcosis, intravenous administration, read-out: Beta-sympatholytic action, ED 50% (dose which inhibits the isoproterenol-induced tachycardia by 50%))
Cc1nnc(C=Cc2ccccc2OCC(O)CNC(C)C)s1 (stereo not shown) [Example 1, 2-Methyl-5-[2-(2-hydroxy-3-isopropylamino-propoxy)-styryl]-1,3,4-thiadiazol]	14.10	10.84	–	–	–
Cc1nnc(C=Cc2ccccc2OCC(O)CNC2CC2)s1 (stereo not shown) [Example 2, 2-Methyl-5-[2-(2-hydroxy-3-cyclopropylamino-propoxy)-styryl]-1,3,4-thiadiazole]	11.75	7.55	12	7.6	–
Cc1nnc(C=Cc2ccccc2OCC(O)CNC(C)(C)C)s1 (stereo not shown) [Example 3, 2-Methyl-5-[2-(2-hydroxy-3-tert.-butylamino-propoxy)-styryl]-1,3,4-thiadiazole]	25.22	13.73	25	–	5.59 µg/kg
C#CC(C)NCC(O)COc1ccccc1C=Cc1nnc(C)s1 (stereo not shown) [Example 7, 2-Methyl-5-[2-(2-hydroxy-3-(but-1-ynyl-3-amino)-propoxy)-styryl]-1,3,4-thiadiazole]	12.70	30.68	–	30.7	–
